According to patent US20250129430A1, “HIGH ATP-AFFINITY PROTEIN AS THERAPEUTIC TARGET FOR INTRACTABLE CANCER MOLECULAR SUBTYPES AND INHIBITOR THEREOF” (VeraVerse Co., Ltd., priority 2021, published 2025):

Legend:
Type in all cases: cell-based, human
[1] = system: non-SEM-type gastric cancer cell line; assay: Cell viability drug screen, AUC summary over non-SEM-type lines; conditions: in the non-SEM-type gastric cancer cell line
[2] = system: NCC24; assay: Cell viability drug screen, 12-point dose-response AUC; conditions: NCC24 cells; 72 hours; 12-point dose-response
In short: (§1)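 Twelve half-log concentrations per compound were tested on gastric cancer cells with an EMT phenotype (5×10^3/well, dosed 24 h post-seeding). Viability after 72 h was quantified via luminescence relative to 0.5% DMSO, and repeats were averaged.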

[3] = system: SNU601; assay: as above; conditions: SNU601 cells; 72 hours; 12-point dose-response
In short: as §1

[4] = system: MKN45; assay: as above; conditions: MKN45 cells; 72 hours; 12-point dose-response
In short: (§2)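 Luminescent viability readings, taken 15 min after reagent addition at room temperature, were normalized to the 0.5% DMSO control to build 12-point dose-response curves. Trapezoidal integration gave the AUC. Cells had been plated at 5×10^3 per well and then exposed to half-log dilutions for 72 h.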

[5] = system: MKN1; assay: as above; conditions: MKN1 cells; 72 hours; 12-point dose-response
In short: as §1

[6] = system: SNU1; assay: as above; conditions: SNU1 cells; 72 hours; 12-point dose-response
In short: as §1

[7] = system: OCUM1; assay: as above; conditions: OCUM1 cells; 72 hours; 12-point dose-response
In short: as §1

[8] = system: Hs746T; assay: as above; conditions: Hs746T cells; 72 hours; 12-point dose-response
In short: as §1

[9] = system: SNU16; assay: as above; conditions: SNU16 cells; 72 hours; 12-point dose-response
In short: as §1

[10] = system: NCC59; assay: as above; conditions: NCC59 cells; 72 hours; 12-point dose-response
In short: as §1

[11] = system: MKN28; assay: as above; conditions: MKN28 cells; 72 hours; 12-point dose-response
In short: as §1

[12] = system: MKN74; assay: as above; conditions: MKN74 cells; 72 hours; 12-point dose-response
In short: as §2

[13] = system: AGS; assay: as above; conditions: AGS cells; 72 hours; 12-point dose-response
In short: as §2

[14] = system: YCC2; assay: as above; conditions: YCC2 cells; 72 hours; 12-point dose-response
In short: as §1

[15] = system: YCC3; assay: as above; conditions: YCC3 cells; 72 hours; 12-point dose-response
In short: as §1

[16] = system: SNU216; assay: as above; conditions: SNU216 cells; 72 hours; 12-point dose-response
In short: as §2

[17] = system: SNU1967; assay: as above; conditions: SNU1967 cells; 72 hours; 12-point dose-response
In short: as §1

[18] = system: KATO3; assay: as above; conditions: KATO3 cells; 72 hours; 12-point dose-response
In short: as §1

[19] = system: NCC19; assay: as above; conditions: NCC19 cells; 72 hours; 12-point dose-response
In short: as §1

[20] = system: SNU1750; assay: as above; conditions: SNU1750 cells; 72 hours; 12-point dose-response
In short: as §1

[21] = system: SNU484; assay: as above; conditions: SNU484 cells; 72 hours; 12-point dose-response
In short: as §1

[22] = system: NCI_N87; assay: as above; conditions: NCI_N87 cells; 72 hours; 12-point dose-response
In short: as §1

[23] = system: SNU620; assay: as above; conditions: SNU620 cells; 72 hours; 12-point dose-response
In short: as §1

[24] = system: SNU668; assay: as above; conditions: SNU668 cells; 72 hours; 12-point dose-response
In short: as §1

[25] = system: SNU638; assay: as above; conditions: SNU638 cells; 72 hours; 12-point dose-response
In short: as §1

[26] = system: SNU719; assay: as above; conditions: SNU719 cells; 72 hours; 12-point dose-response
In short: as §2

[27] = system: SK4; assay: as above; conditions: SK4 cells; 72 hours; 12-point dose-response
In short: as §1

[28] = system: YCC11; assay: as above; conditions: YCC11 cells; 72 hours; 12-point dose-response
In short: as §1

[29] = system: NCC20; assay: as above; conditions: NCC20 cells; 72 hours; 12-point dose-response
In short: as §1

[30] = system: SEM-type gastric cancer cell line; assay: Cell viability drug screen, AUC summary over SEM-type lines
In short: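 Seven EMT gastric cancer lines seeded 24 h, then treated with compound in half-log 12-point dilution series (0.5% DMSO) for 72 h at 37 °C. Viability measured by luminescence, normalized to DMSO control; AUC of each 12-point dose–response curve calculated by trapezoidal method.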

[31] = system: FU97; assay: Cell viability drug screen, 12-point dose-response AUC; conditions: FU97 cells; 72 hours; 12-point dose-response
In short: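 Trapezoidal AUC of a 12-point, DMSO-normalized dose-response curve. Luminescent viability was measured after 72 h of exposure at 37° C to half-log serial dilutions (0.5% DMSO control), dosed 24 h after plating FU97 cells at 5×10^3 per well.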

## COCCn1c2c([n+](Cc3cnccn3)c1C)C(=O)c1ccccc1C2=O [YM155]
[1]
  AUC value: high
[2]
  area under the viability curve (AUC), normalized: −0.6903
[3]
  area under the viability curve (AUC), normalized: 1.661
[4]
  area under the viability curve (AUC), normalized: 0.6792
[5]
  area under the viability curve (AUC), normalized: −2.0115
[6]
  area under the viability curve (AUC), normalized: 1.212
[7]
  area under the viability curve (AUC), normalized: 1.685
[8]
  area under the viability curve (AUC), normalized: −1.376
[9]
  area under the viability curve (AUC), normalized: 2.497
[10]
  area under the viability curve (AUC), normalized: 0.1386
[11]
  area under the viability curve (AUC), normalized: −1.021
[12]
  area under the viability curve (AUC), normalized: −1.305
[13]
  area under the viability curve (AUC), normalized: −1.512
[14]
  area under the viability curve (AUC), normalized: −0.4228
[15]
  area under the viability curve (AUC), normalized: 1.325
[16]
  area under the viability curve (AUC), normalized: 0.09958
[17]
  area under the viability curve (AUC), normalized: −0.2044
[18]
  area under the viability curve (AUC), normalized: −0.3081
[19]
  area under the viability curve (AUC), normalized: 3.608
[20]
  area under the viability curve (AUC), normalized: −2.624
[21]
  area under the viability curve (AUC), normalized: −2.56
[22]
  area under the viability curve (AUC), normalized: 0.4168
[23]
  area under the viability curve (AUC), normalized: 1.29
[24]
  area under the viability curve (AUC), normalized: −0.2961
[25]
  area under the viability curve (AUC), normalized: 0.5099
[26]
  area under the viability curve (AUC), normalized: 3.789
[27]
  area under the viability curve (AUC), normalized: −1.314
[28]
  area under the viability curve (AUC), normalized: −1.419
[29]
  area under the viability curve (AUC), normalized: 0
[30]
  normalized viability AUC: negative
[31]
  area under the viability curve (AUC), normalized: 1.301
